Results on 15 compounds are retold here after paper PMC10769324 (bioRxiv, 2024).

SMILES strings stand for the structures.

For experiment [1], the target named is T1, 5-HT2A (Homo sapiens, UniProt P28223). The format is binding. The conditions noted are these: [3H]-LSD 0.5 nM, HEK293 membranes; for log(Ki): printed as log(Ki) with negative sign.
The target of experiment [2] is T1, 5-HT2A. To be noted: Gαq dissociation vs β-arrestin2 recruitment, versus 5-HT. On the technique in general: Recruitment of arrestin is a read-out of receptor activation apart from second messengers.

T1 sequence (P28223 whole entry): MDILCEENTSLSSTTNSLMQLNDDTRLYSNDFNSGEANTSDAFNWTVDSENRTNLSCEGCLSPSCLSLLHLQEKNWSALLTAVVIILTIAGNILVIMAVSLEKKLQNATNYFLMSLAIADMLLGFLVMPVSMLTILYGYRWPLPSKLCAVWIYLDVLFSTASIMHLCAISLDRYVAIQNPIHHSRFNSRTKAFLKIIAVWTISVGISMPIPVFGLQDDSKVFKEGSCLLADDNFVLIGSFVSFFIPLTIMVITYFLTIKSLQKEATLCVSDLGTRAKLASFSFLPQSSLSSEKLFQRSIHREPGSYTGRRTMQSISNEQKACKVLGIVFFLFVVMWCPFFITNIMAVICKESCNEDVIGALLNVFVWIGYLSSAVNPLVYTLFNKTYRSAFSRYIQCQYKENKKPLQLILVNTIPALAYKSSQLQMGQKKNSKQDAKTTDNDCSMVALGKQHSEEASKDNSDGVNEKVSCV

On to `COc1ccccc1CC1CCN(CC(=O)c2cc(C)[nH]c2C)C1` (stereo not shown) [Compound Z7619689903], for which, on 5-HT2A [1], the affinity, expressed as Ki, was 344 nM and the “log(Ki)” value is given as −6.46 ± 0.086.

As for `C=C/C=C/CCN1CCC(O)(c2cccc(Br)c2)C1` (stereo not shown) [Compound Z5247693129], the “log(Ki)” value on 5-HT2A [1] was −6.49 ± 0.094.

Turning to `NC1Cc2ccccc2N(Cc2cc(O)cc(Br)c2)C1` (stereo not shown) [Compound Z7619689909], on 5-HT2A [1], the Ki turned out to be 72 nM and the “log(Ki)” value is −7.14 ± 0.078. As for `CN(C(=O)c1cn[nH]n1)C1CCN(CCc2cccc(Cl)c2Cl)C1` (stereo not shown) [Compound Z7619689892], on 5-HT2A [1], the affinity corresponds to a Ki of 17 nM and the “log(Ki)” value is on record as −7.78 ± 0.077. In the case of `COc1ccc(COCCN(C)C(C)Cc2ccc(O)cc2)cc1` (stereo not shown) [Compound Z1441676226], at 5-HT2A [1], the “log(Ki)” value is recorded as −6.77 ± 0.087. On to `Clc1ccc(C#CCN2CCCC(c3ccn[nH]3)C2)cc1` (stereo not shown) [Compound Z1348472291], for which the “log(Ki)” value at 5-HT2A [1] is given as −6.65 ± 0.083. Regarding `CC(C)C(N)CCN(C)C(=O)C(=O)Nc1cc2ccccc2cc1Cl` (stereo not shown) [Compound Z5247694451], the “log(Ki)” value at 5-HT2A [1] is recorded as −7.15 ± 0.073. In the case of `O=C(c1cc(C2CCNC2)[nH]n1)N1CCC(c2cccc(Cl)c2)C1` (stereo not shown) [Compound Z3808146201], at 5-HT2A [1], the “log(Ki)” value is recorded as −6.51 ± 0.096. `Oc1ccc(C2=CCN(CC3CC34CC4)CC2)cc1` (stereo not shown) [Compound Z2945615615]: at 5-HT2A [1], the affinity, expressed as Ki, was 24 nM and the “log(Ki)” value is on record as −7.62 ± 0.104.

In the case of `Cc1cccc(OCCCC(=O)N2CCNCc3ccccc32)c1` [Compound Z2393190959], the “log(Ki)” value on 5-HT2A [1] is given as −6.51 ± 0.085. For the compound `C=CCNC(=O)C(C)N1CCCC(c2ccc(O)cc2)C1` (stereo not shown) [Compound Z3517963976], on 5-HT2A [1], the affinity corresponds to a Ki of 113 nM and the “log(Ki)” value was −6.95 ± 0.085. On 5-HT2A [1], `NCC1Cc2cc(F)ccc2N(C(=O)Cc2cc(F)ccc2Br)C1` (stereo not shown) [Compound Z7704262288] displayed an inhibition constant Ki of 15 nM. For `NCCc1c[nH]c2ccc(O)cc12` [serotonin], the “Apparent Bias Factor” value at 5-HT2A [2] is 1.0. Take `c1ccc(O[C@H]2CCN(Cc3ccc(-c4ccn[nH]4)o3)C2)cc1` [Compound Z2449215308]: on 5-HT2A [1], the affinity corresponds to a Ki of 162 nM and the “log(Ki)” value is recorded as −6.79 ± 0.100. The like results for `CCN(Cc1cc(Br)ccc1O)C(=O)C(N)Cc1ccco1` (stereo not shown) [Compound Z3865153101] were, in that order, 114 nM and −6.94 ± 0.099.

The Ki is the equilibrium dissociation constant of an inhibitor or competing ligand from its target. Read a high Ki as weaker binding.
